Assay results taken from article PMC10895678 (Journal of Medicinal Chemistry, 2024).

What was measured:
[1] = test system: BCG pTIC6-fbpB; format: cell-based, Mycobacterium bovis BCG
[2] = test system: BCG pTIC6-fbpA; format: cell-based, Mycobacterium bovis BCG
[3] = test system: BCG pTIC6-fbpC; format: cell-based, Mycobacterium bovis BCG
[4] = test system: M. bovis BCG; assay: microbe, parasite or virus in culture; format: cell-based, Mycobacterium bovis BCG
[5] = test system: M. smegmatis; assay: MIC determination, resazurin end point assay, M. smegmatis; format: cell-based, Mycobacterium smegmatis
[6] = test system: M. tuberculosis H37Rv; assay: Mycobacterial time kill experiments (total viable counts); format: cell-based, Mycobacterium tuberculosis; conditions: 29 μM, by day 10, to limit of detection (100 CFU mL^–1)

O=c1c2ccccc2[se]n1-c1ccccc1 [Ebselen, reference compound]
BCG pTIC6-fbpB MIC [1]: 90 µM
increase in MIC upon overexpression of FbpB [1]: three-fold increase
BCG pTIC6-fbpA MIC [2]: 28 µM
shift in MIC upon overexpression of FbpA [2]: No shift in MIC
BCG pTIC6-fbpC MIC [3]: 98 µM
increase in MIC upon overexpression of FbpC [3]: three-fold increase

(rac)-1-(((2,4-cis)-1-(2-bromobenzyl)-4-phenylazetidin-2-yl)methyl)-4-(4-(trifluoromethyl)phenyl)piperidine [BGAz-016]
BCG MIC99 ([4]; resazurin end point assay, modified Gompertz function, three biological replicates): 60 µM
MIC50 BCG ([4]; supplementary MIC data file): 48 µM
MIC99 BCG ([4]; supplementary MIC data file): 60 µM
MIC99 ([5]; resazurin end point assay, modified Gompertz function, three biological replicates, read-out: M. smeg. MIC99): 100 µM
MIC50 smegmatis ([5]; supplementary MIC data file): 34 µM
MIC99 smegmatis ([5]; supplementary MIC data file): > 100 µM

NNC(=O)c1ccncc1 [Isoniazid, reference compound]
reduction of total viable count [6]: > 4.52 ± 0.60 log10 CFU mL^–1
